Test results: article PMC12027554, “Inhibition of ABCG2 by SCO-101 Enhances Chemotherapy Efficacy in Cancer” (International Journal of Molecular Sciences, 2025)
Where two headings read alike, the source gives them in different places.

What was measured:
[1] = target: T1, human UGT1A1 enzyme (Homo sapiens, UniProt P22309); experiment: Inhibition of UGT1A1 glucuronidation activity (recombinant enzyme); assay type: biochemical; conditions: SCO-101 0.003–1 µM
T1 sequence (P22309 26-533): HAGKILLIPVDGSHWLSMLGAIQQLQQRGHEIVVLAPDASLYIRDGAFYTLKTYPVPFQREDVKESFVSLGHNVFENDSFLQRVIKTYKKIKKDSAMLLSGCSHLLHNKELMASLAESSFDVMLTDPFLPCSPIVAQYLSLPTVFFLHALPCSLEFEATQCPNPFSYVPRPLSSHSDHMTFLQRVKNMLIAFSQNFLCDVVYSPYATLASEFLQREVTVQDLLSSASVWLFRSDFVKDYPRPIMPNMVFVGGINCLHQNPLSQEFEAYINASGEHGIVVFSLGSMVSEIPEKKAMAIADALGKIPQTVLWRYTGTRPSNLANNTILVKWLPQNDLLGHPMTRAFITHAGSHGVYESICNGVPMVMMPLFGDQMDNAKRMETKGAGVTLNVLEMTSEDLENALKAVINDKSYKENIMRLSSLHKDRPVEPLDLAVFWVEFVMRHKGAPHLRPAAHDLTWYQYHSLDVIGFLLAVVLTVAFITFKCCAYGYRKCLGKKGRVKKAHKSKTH
Method: The inhibition potency of SCO-101 towards the human UGT1A1 enzyme was studied using recombinant human enzymes and the two different probe substrates β-estradiol (10 μM) and SN-38 (10 μM). Additionally, a positive control inhibitor at a single concentration (10 μM ketoconazole) and a solvent control were employed. Reactions were conducted at 37 °C after a 10 min pre-incubation at 37 °C in incubation buffer (10 mM Tris-HCl, pH 7.4, 5 mM MgCl2, […] alamethicin) and started by adding 5 mM UDPGA. Reactions were terminated after 30 min by adding an equal volume of ice-cold acetonitrile with 1% formic acid and 0.5 μM caffeine. The level of the UGT-specific probe glucuronidation was monitored by LC/MS-MS, and inhibition was observed as a reduced level of metabolite formation of the substrate.

[2] = target: T2, ABCG2 (Homo sapiens, UniProt Q9UNQ0); experiment: Efflux transporter inhibition, vesicular uptake into inside-out membrane vesicles (ABCG2); assay type: biochemical; parameters: purchased SOLVO biotechnology, Budapest, Hungary
T2 sequence (Q9UNQ0 1-655): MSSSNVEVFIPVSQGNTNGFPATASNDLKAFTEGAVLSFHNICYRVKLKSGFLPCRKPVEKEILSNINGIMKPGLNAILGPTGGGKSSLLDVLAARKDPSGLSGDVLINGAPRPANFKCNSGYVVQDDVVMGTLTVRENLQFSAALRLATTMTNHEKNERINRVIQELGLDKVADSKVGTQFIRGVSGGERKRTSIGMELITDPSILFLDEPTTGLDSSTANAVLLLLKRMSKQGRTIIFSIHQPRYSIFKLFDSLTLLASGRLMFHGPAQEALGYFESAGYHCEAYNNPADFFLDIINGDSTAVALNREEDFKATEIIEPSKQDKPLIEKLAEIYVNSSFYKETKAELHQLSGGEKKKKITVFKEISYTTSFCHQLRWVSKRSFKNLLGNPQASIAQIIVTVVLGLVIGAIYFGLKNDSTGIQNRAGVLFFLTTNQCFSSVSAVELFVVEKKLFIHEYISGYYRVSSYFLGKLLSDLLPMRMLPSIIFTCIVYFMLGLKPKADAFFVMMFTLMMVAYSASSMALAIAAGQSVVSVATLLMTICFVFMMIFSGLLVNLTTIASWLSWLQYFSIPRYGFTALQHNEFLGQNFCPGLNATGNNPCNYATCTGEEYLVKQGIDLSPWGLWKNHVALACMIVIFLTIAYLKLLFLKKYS
Method: Efflux transporter inhibition was evaluated by measuring vesicular uptake into inside-out membrane vesicles (SOLVO biotechnology, Budapest, Hungary) expressing a single human ABC transporter (0.67 mg/mL ABCB1; 0.67 mg/mL ABCC2; 0.33 mg/mL ABCG2 membrane protein) of a probe substrate (1 μM N-methyl-quinidine for ABCB1; 100 μM 5(6)-carboxy-2′,7′-dichlorofluorescein for ABCC2; 1 μM Eestrone-3-sulfate for ABCG2) in the presence of SCO-101 with and without ATP (4 mM) in 96-well plate format. Control solvent and control inhibitors (4–60 μM verapamil for […]; 1–15 μM sulfasalazine for ABCG2; 5.5–150 μM benzbromarone for ABCC2) were incubated in parallel. Vesicular uptake was conducted at 37 °C in incubation buffer (10 mM Tris-HCl, pH 7.4, 10 mM MgCl2, 250 mM sucrose) and terminated after 1 min (ABCB1 and ABCG2) or 5 min (ABCC2) by adding ice-cold washing buffer (10 mM Tris-HCl, pH 7.4, 100 mM NaCl, 250 mM sucrose). […] Probe quantification was conducted using LC-MS/MS peak areas (solvent control with ATP − AMP = 100%). […] The remaining transporter activity % was calculated according to the formula below, and fitting was performed using GraphPad Prism: A%=AATP,sample−AAMP,sample/AATP,solvent−AAMP,solvent

O=C(Nc1cc(C(F)(F)F)cc(C(F)(F)F)c1)Nc1ccc(Br)cc1-c1nnn[nH]1 [SCO-101, N-[4-Bromo-2-(1H-1,2,3,4-tetrazol-5-yl)phenyl]-N′-[3,5-bis(trifluoromethyl)phenyl]urea]
IC50 ([1]; substrate SN-38 10 μM, read-out: IC50, UGT1A1 glucuronidation of SN-38): 100 nM | IC50 ([1]; substrate β-estradiol 10 μM, read-out: IC50, UGT1A1 glucuronidation of β-estradiol): 280 nM | IC50 ([2]; ABCG2 inside-out vesicles, 1 μM estrone-3-sulfate, SCO-101 0.001–300 µM, read-out: IC50, ATP-dependent vesicular uptake of probe substrate (remaining ABCG2 activity)): 160 nM | IC50 for MDR1/ABCB1 and MRP2/ABCC2 relative to ABCG2 ([2]; selectivity for ABCG2): > 100 fold
